Measured values published in patent US4029780A, “3-Piperazinyl 1,2,4-benzothiadiazine 1,1-dioxide derivatives their compositions and method of use” (Dainippon Pharmaceutical Co., Ltd., priority 1974, dated 1977).

Experiments:
[1] = cited from earlier work
[2] = tested on: Male Wistar rats; test: Effect on blood glucose (a), oral; conditions: 300 mg/kg p.o.
Procedure: (a) Male Wistar rats weighing 190-210 g were used. Each test compound was suspended in a concentration of 150 mg/ml in a 0.5% aqueous tragacanth solution and orally administered at a dose of 300 mg/kg by the stomach tube.

[3] = well known; cited from earlier work
[4] = tested on: Male Wistar rats; test: Effect on urine volume and electrolyte excretion; type: in vivo, rat; conditions: 100 mg/kg p.o., urinary excretion over 5 hours
Procedure: Male Wistar rats weighing 220 to 260 g were used. Each test compound was suspended in a solution of tragacanth dissolved in a concentration of 0.5% in a 0.9% saline solution so that the volume of the resulting suspension to be administered would be always 25 ml/Kg. The test compounds were administered orally by the stomach tube to the animals at the prescribed doses. The animals were then placed in a metabolic cage and the urine was collected over a period of 5 hours. The total amount of sodium, potassium and chloride excreted was determined by Auto-Analyzer, made by Technicon Instruments Corporation.

[5] = tested on: Male Wistar rats; test: Effect on blood glucose (b), intraperitoneal; conditions: 300 mg/kg i.p.
Procedure: (b) Male Wistar rats weighing 260-285 g were used. […] 4 ml/kg of the above solution of each test compound was intraperitoneally administered to each animal. The blood samples were taken prior to dosing and 1, 3 and 6 hours after the administration and the plasma glucose levels were determined in a similar manner to that described in (a).

[6] = tested on: Spontaneously hypertensive male rats; test: Antihypertensive activity in spontaneously hypertensive rats (oral, 10 successive days); type: in vivo, rat; conditions: 10 mg/kg/day p.o.
Procedure: Spontaneously hypertensive male rats [SHR, Jap. Circ. J. 27, 282-93 (1963)] being 18-23 weeks of age and having systolic blood pressure levels of 170-190 mmHg were used. The test compounds were each suspended in a 0.5% aqueous tragacanth solution and administered orally in a dose of 10 mg/kg/day by stomach tube to SHR once a day for 10 successive days. The blood pressure of conscious SHR was measured prior to dosing and 5 hours after administration. It was also measured once daily over a period of 7 days after the end of the treatment period. The measurement of the blood pressure was made by a plethysmographtail method [Jap. Circ. J. 27, 282-93 (1963)].

Structure (SMILES): CC1=Nc2ccc(Cl)cc2S(=O)(=O)N1 [Compound 3, 7-chloro-3-methyl-2H-1,2,4-benzothiadiazine 1,1-dioxide]
- Diuretic action ([1]; known): no diuretic action
- Antidiuretic activity ([1]; literature): antidiuretic effects (i.e., sodium and water retaining effect)
- Blood glucose ([2]; 0 hr (prior to dosing)): 111 mg/dL
- Blood glucose ([2]; 1 hr): 126 mg/dL
- Blood glucose ([2]; 3 hr): 125 mg/dL
- Blood glucose ([2]; 6 hr): 146 mg/dL
- Blood glucose ([2]; 10 hr): 148 mg/dL
- Hyperglycemic effects [3]: marked hyperglycemic effects
- Cl- [4]: 0.20 mEq
- K+ [4]: 0.37 mEq
- Na+ [4]: 0.17 mEq
- Na+/K+ [4]: 0.51
- Blood glucose ([5]; 0 hr (prior to dosing)): 100 mg/dL
- Blood glucose ([5]; 1 hr): 361 mg/dL
- Blood glucose ([5]; 3 hr): 599 mg/dL
- Blood glucose ([5]; 6 hr): 675 mg/dL
- Blood pressure ([6]; day 0, 5 hours after administration): 155 mm Hg
- Blood pressure ([6]; day 0, prior to dosing (0)): 173 mm Hg
- Blood pressure ([6]; day 2, 5 hours after administration): 146 mm Hg
- Blood pressure ([6]; day 2, prior to dosing (0)): 166 mm Hg
- Blood pressure ([6]; day 4, 5 hours after administration): 151 mm Hg
- Blood pressure ([6]; day 4, prior to dosing (0)): 159 mm Hg
- Blood pressure ([6]; day 6, 5 hours after administration): 143 mm Hg
- Blood pressure ([6]; day 6, prior to dosing (0)): 150 mm Hg
- Blood pressure ([6]; day 8, 5 hours after administration): 137 mm Hg
- Blood pressure ([6]; day 8, prior to dosing (0)): 153 mm Hg
- Blood pressure ([6]; day 10, 24 hours after the final treatment): 144 mm Hg
- Blood pressure ([6]; day 14, 120 hours after the final treatment): 175 mm Hg
